These are literature values, as cited in patent publication US8709476B2, “Compositions of quaternary ammonium compounds containing bioavailability enhancers” (Supernus Pharmaceuticals, Inc., priority 2003, dated 2014).

The conditions of this data set: in humans; oral dosage form.

Regarding `O=C(O[C@H]1C[C@H]2CC[C@@H](C1)[N+]21CCCC1)C(O)(c1ccccc1)c1ccccc1` [Trospium chloride], the bioavailability result was “up to 10%”.
